Assay results reported in patent publication US20080213768A1, “Identification and use of biomarkers for non-invasive and early detection of liver injury” (priority 2006, published 2008).

Assays:
Assay type in all cases: in vivo
[1] = system: rat urine; assay: Biochemical profiling (LC-MS) of rat urine after a single dose of acetaminophen; parameters: key to Pipecolate significantly changed / Ribose significantly changed / Tyrosine significantly changed: (x = significantly changed)
[2] = system: human serum; assay: Biochemical profiling of human serum after single oral dose of APAP, correlated with rat; parameters: key: X: Biochemicals significantly changed by APAP in both rat and human biological samples; conditions: humans single oral dose of 4 g APAP
Experimental: (§1) Six healthy human volunteers received a standardized soy shake diet for 72 hours. Each volunteer received a single oral dose of 4 g APAP (˜50 mg/kg). Serum and urine were sampled at 0, 6, 18, 24, 48, 72 and 96 hours (urine collected between these times). BCP analysis was carried out as described in Example 1.

[3] = system: human urine; assay: Biochemical profiling of human urine after single oral dose of APAP, correlated with rat; parameters: key: X: Biochemicals significantly changed by APAP in both rat and human biological samples; conditions: humans single oral dose of 4 g APAP
Experimental: as §1

[4] = system: rat serum; assay: Biochemical profiling (LC-MS) of rat serum after a single dose of acetaminophen; parameters: key to Pipecolate significantly changed / Citrulline significantly changed: (x = significantly changed)

## CC(=O)Nc1ccc(O)cc1 [acetaminophen]
[1]
  Pipecolate significantly changed: x
  Ribose significantly changed: x
  Tyrosine significantly changed: x
[1]; study of Example 1
  response for Peak13 in urine versus control: did not vary significantly from control
  responses of aspartic acid, Peak12, glutamine, Peak20, succinic acid and Peak26 versus control (baseline): significant variation from control
[2]
  Citrulline significantly changed by APAP in both rat and human: X
  Creatinine significantly changed by APAP in both rat and human: X
  Glutamate significantly changed by APAP in both rat and human: X
  Glutamine significantly changed by APAP in both rat and human: X
  Guanosine significantly changed by APAP in both rat and human: X
  Homoserine significantly changed by APAP in both rat and human: X
  Hypoxanthine significantly changed by APAP in both rat and human: X
  Ornithine significantly changed by APAP in both rat and human: X
  Phenylalanine significantly changed by APAP in both rat and human: X
  Pipecolate significantly changed by APAP in both rat and human: X
[3]
  2-Oxoglutarate significantly changed by APAP in both rat and human: X
  5-Hyroxytryptophan significantly changed by APAP in both rat and human: X
  Cytosine significantly changed by APAP in both rat and human: X
  Glutamate significantly changed by APAP in both rat and human: X
  Lysine significantly changed by APAP in both rat and human: X
  Serine significantly changed by APAP in both rat and human: X
[4]
  Citrulline significantly changed: x
  Pipecolate significantly changed: x
[4]; study of Example 1
  Peak13 presence in serum: not observed
  responses of aspartic acid, Peak12, glutamine, Peak20, succinic acid and Peak26 versus control (baseline): significant variation from control
